# pKi: −log10 of the molar value. Where “and” joins values, the source holds several entries; their conditions need not be identical. Identical values can stand only once.
# Assays:
# 18 clinical isolates = test: MIC distribution against 18 clinical isolates (and Mab ATCC 19977); type: cell-based, Mycobacterium abscessus; settings: single agent, 18 clinical isolates (Fig. 3 also Mab ATCC 19977)
# Excerpt: We investigated the effect of C5α-substituted carbapenems (C5α-methyl, JDB/NA-1-157 or 10a and C5α-ethyl, JDB/NA-1-208, or 10b) against Mab strain ATCC 19977, which produces BlaMab, alongside 18 clinical isolates obtained from de-identified patients. These clinical isolates were sourced from National Jewish Health, University Hospitals Cleveland Medical Center, and Cleveland MetroHealth. The strains were utilized for MIC assays and static drug concentration time-kill (SCTK) experiments. Two C5α-substituted carbapenems were designed and synthesized in the Buynak lab at SMU ([31]). The active forms of cefuroxime salts, imipenem, amoxicillin, sulbactam, and avibactam were purchased from AchemBlock, while durlobactam was provided by Innoviva Specialty Therapeutics. All β-lactams and BLIs were prepared in sterile distilled water and subsequently filter-sterilized using a 0.22 µm polyethersulfone syringe filter.
# MICs were determined in duplicate following Clinical Laboratory Standards Institute ([52]) guidelines using Middlebrook 7H9 broth supplemented with 10% (vol/vol) oleic acid-albumin-dextrose-catalase (OADC) and 0.05% (vol/vol) Tween 80, with an inoculum of 5 × 10⁵ CFU/mL. […]
# Mab ATCC 19977 = test: MIC testing with drugs pre-incubated in 7H9 broth (effect of drug instability); type: cell-based, Mycobacterium abscessus; settings: for MIC: Mycobacteroides abscessus, ATCC19977; for MIC rise after 24 and 48 h incubation vs nonincubated: drug incubated 24 and 48 h
# Description: MICs were determined in duplicate following Clinical Laboratory Standards Institute ([52]) guidelines using Middlebrook 7H9 broth supplemented with 10% (vol/vol) oleic acid-albumin-dextrose-catalase (OADC) and 0.05% (vol/vol) Tween 80, with an inoculum of 5 × 10⁵ CFU/mL. MIC testing of two C5α-substituted carbapenems was conducted both individually and in combination with cephalosporins (cefuroxime and ceftaroline), penicillins (amoxicillin), or BLIs (avibactam or durlobactam + sulbactam). Avibactam, durlobactam, cefuroxime, ceftaroline, and amoxicillin were fixed at concentrations of 4, 1, 2, 4, and 4 mg/L, respectively. Amoxicillin was combined with 4 mg/L avibactam, as it is highly susceptible to hydrolysis by BlaMab ([12], [15], [25]). The MIC was defined as the lowest antibiotic concentration that inhibited visible bacterial growth following 48 h of incubation at 30°C.
# BlaMab = BlaMab (Mycobacteroides abscessus, UniProt B1MCI3); test: Steady-state kinetics of hydrolysis by BlaMab; type: biochemical, Mycobacterium abscessus; settings: best-fit value (95% confidence interval); MES buffer pH 6.4, room temperature
# PBP-lipo = target: T1, PBP-lipo (Mycobacteroides abscessus, UniProt B1MDC3); test: Apparent inhibition constant (nitrocefin, Dixon plot); type: biochemical; settings: Ki,app
# T1 construct: made in house; host or cells: Escherichia coli BL21 (DE3)
# Description: (§1) Steady-state kinetic studies with JDB/NA-1-157 and JDB/NA-1-208 were performed using purified LDTs and PBPs, including LDT1–5, PBP-B, PBP-lipo, and D,D-carboxypeptidase. The assays were conducted on a BioTek Synergy2 multimode reader equipped with Gen5 software. To determine the Michaelis constant (Km^NCF) for each LDT and PBP, a wide range of NCF concentrations was tested, while the enzyme concentrations were fixed. Absorbance changes at 482 nm were monitored over 10 min. Steady-state kinetic parameters (Vmax and Km) were derived by fitting the experimental data to the Henri–Michaelis–Menten equation using nonlinear least-squares regression in GraphPad Prism version 9. The reaction velocity (v) at a given substrate concentration ([S]) was calculated using equation 2: […]
# (§2) The apparent inhibition constants (Ki,app) for JDB/NA-1-157 and JDB/NA-1-208 were determined under the following conditions: an NCF concentration of 5 × Km, fixed concentrations of LDT or PBP enzymes, and varying concentrations of JDB/NA-1-157 and JDB/NA-1-208. Absorbance changes at 482 nm were monitored over a 30 min period for each inhibitor concentration. The data were linearized using a Dixon plot, which involves plotting the reciprocal of the absorbance change (1/ΔA) against the concentrations of JDB/NA-1-157 or JDB/NA-1-208. Apparent Ki,app values were derived from the intersection points on the Dixon plot and were subsequently corrected for substrate concentration and enzyme affinity using equation 3:
# (§3) (3) Ki,app=observed Ki,app/1+[NCF]/Km NCF.
# PBP B = PBP B (Mycobacteroides abscessus, UniProt B1MP31); test: Mass spectrometric analysis of acyl-enzyme adducts; type: binding; settings: PBP B (65,863); 1:10 molar ratio, 2 h; accuracy ±5 Da
# Description: Truncated sequences of BlaMab (Δ1–30 blaMab), LDT1–5, DDC, PBP B, PonA2, and PBP-lipo (Δ1–41) were synthesized by Celtek Biosciences (Franklin, TN) and cloned into the pET28(a)+ vector. Purification of LDTs and PBPs was carried out as previously described ([15], [16], [20]). Briefly, clones were transformed into Escherichia coli BL21 (DE3), and protein expression was induced with 0.25 mM isopropyl β-d-1-thiogalactopyranoside. Cell pellets were resuspended in buffer containing 50 mM Tris (pH 8.0), 400 mM sodium chloride, and 1 mM Tris(2-carboxyethyl)phosphine hydrochloride and lysed by sonication. After centrifugation, the supernatant was purified using a His Prep FF column and eluted with 500 mM imidazole.
# The purified proteins were incubated at room temperature with JDB/NA-1-157 and JDB/NA-1-208 at a molar ratio of 1:10 for 2 h. A quadrupole time-of-flight mass spectrometer (Waters Synapt-G2-Si) with electrospray ionization and a Waters Acquity H-Class UPLC system were used to analyze the samples. The liquid chromatography conditions were as follows: a BEH C18 column (1.7 µm, 2.1 × 50 mm) and a mobile phase consisting of 0.1% formic acid in water and 0.1% formic acid in acetonitrile, with a gradient elution from 10% to 90% acetonitrile over 11 min at a flow rate of 0.5 mL/min. […]
# LDT5 = LDT5 (Mycobacteroides abscessus, UniProt B1MHQ4); test: Apparent inhibition constant (nitrocefin, Dixon plot); type: biochemical, Mycobacterium abscessus; settings: read-out: Ki,app
# Description: as §1, §2, §3
# [1] = drug incubated 6 h in 7H9 broth at 30°C
# [2] = drug incubated 24 h in 7H9 broth at 30°C
# [3] = drug incubated 48 h in 7H9 broth at 30°C
# T1 sequence (B1MDC3 entry or part of it): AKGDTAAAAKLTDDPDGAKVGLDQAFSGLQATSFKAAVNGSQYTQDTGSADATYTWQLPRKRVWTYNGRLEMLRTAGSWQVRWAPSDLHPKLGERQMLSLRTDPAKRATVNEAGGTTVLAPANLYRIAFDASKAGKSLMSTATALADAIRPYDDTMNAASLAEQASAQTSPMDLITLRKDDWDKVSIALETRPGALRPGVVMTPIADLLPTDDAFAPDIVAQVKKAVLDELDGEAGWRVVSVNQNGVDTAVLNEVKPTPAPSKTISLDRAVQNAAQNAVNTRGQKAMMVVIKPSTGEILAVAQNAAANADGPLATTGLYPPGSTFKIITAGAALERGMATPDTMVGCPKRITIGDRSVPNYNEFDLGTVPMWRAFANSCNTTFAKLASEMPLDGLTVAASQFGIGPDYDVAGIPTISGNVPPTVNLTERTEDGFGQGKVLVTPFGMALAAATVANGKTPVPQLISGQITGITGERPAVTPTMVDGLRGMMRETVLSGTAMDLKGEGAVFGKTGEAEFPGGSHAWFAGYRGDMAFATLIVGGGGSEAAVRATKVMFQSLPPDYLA
# Sequence of BlaMab (B1MCI3 entry or part of it): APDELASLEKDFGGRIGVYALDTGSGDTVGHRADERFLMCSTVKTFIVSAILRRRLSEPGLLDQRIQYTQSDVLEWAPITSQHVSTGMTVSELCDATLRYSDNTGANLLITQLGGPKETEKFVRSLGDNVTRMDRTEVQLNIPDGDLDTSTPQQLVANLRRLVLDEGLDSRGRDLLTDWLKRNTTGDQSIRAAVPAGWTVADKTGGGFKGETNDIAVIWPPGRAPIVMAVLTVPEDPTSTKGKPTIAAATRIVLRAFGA
# Sequence of LDT5 (B1MHQ4 entry or part of it): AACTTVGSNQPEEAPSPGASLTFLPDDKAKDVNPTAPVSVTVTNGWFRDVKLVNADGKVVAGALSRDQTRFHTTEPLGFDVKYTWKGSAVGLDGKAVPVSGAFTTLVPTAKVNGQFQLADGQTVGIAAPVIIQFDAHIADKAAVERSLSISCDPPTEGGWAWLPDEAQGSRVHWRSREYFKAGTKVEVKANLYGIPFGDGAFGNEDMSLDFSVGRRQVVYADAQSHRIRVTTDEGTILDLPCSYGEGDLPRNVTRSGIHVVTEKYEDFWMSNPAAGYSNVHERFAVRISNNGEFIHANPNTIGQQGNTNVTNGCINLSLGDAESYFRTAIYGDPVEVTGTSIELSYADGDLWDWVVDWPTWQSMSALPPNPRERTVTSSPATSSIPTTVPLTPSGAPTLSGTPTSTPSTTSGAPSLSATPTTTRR
# Sequence of PBP B (B1MP31 entry or part of it): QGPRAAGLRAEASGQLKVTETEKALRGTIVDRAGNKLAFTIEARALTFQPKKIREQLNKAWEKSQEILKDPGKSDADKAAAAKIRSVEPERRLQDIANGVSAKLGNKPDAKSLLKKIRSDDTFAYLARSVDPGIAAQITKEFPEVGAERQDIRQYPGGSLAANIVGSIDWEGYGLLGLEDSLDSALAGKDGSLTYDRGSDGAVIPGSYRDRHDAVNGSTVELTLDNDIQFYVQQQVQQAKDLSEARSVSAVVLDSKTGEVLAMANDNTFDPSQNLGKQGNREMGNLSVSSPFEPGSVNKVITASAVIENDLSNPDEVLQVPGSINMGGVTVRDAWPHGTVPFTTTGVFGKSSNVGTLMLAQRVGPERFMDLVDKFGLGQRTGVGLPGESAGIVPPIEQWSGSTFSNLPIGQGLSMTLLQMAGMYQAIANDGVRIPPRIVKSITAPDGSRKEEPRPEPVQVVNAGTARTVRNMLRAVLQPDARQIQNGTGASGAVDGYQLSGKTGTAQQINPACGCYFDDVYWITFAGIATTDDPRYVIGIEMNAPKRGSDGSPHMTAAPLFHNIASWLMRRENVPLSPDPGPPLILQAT
structure (smiles),measurement,setting,value
C[C@@H](O)[C@H]1C(=O)N2C(C(=O)O)=C(S[C@@H]3CN[C@H](C(=O)N(C)C)C3)C[C@]12C [JDB/NA-1-157],MIC range,18 clinical isolates,0.125 to 8.0 µg/mL and 0.125 to 8 µg/mL
same,MIC,Mab ATCC 19977; [1],0.25 µg/mL
same,MIC,Mab ATCC 19977; [2],2 µg/mL
same,MIC,Mab ATCC 19977; [3],2 µg/mL
same,MIC,Mab ATCC 19977; no incubation of drug,0.25 µg/mL
same,MIC rise after 24 and 48 h incubation vs nonincubated,Mab ATCC 19977,fourfold
same,kcat,BlaMab,0.03 s⁻¹
same,pKi,PBP-lipo,6.59
CC[C@]12CC(S[C@@H]3CN[C@H](C(=O)N(C)C)C3)=C(C(=O)O)N1C(=O)[C@@H]2[C@@H](C)O [JDB/NA-1-208],MIC,Mab ATCC 19977; [1],16 µg/mL
same,MIC,Mab ATCC 19977; [2],32 µg/mL
same,MIC,Mab ATCC 19977; [3],32 µg/mL
same,MIC,Mab ATCC 19977; no incubation of drug,16 µg/mL
same,MIC rise after 24 and 48 h incubation vs nonincubated,Mab ATCC 19977,twofold
same,Mass of protein after incubation (mass shift),PBP B,"66,262 (+397) Da"
same,pKi,LDT5,4.54

# Source: publication PMC12326981, “Novel C5α-substituted carbapenems enhance Mycobacterium abscessus killing via selective target binding and reduced hydrolysis by BlaMab” (Antimicrobial Agents and Chemotherapy, 2025)
